Key:
[1] = test system: D-Galactosamine (GAIN) induced hepatic injury; assay: Hepatoprotective activity (in vivo) against D-Galactosamine induced hepatic injury; settings: rats; for Hepatic parameters Glutathione / Hepatic parameters Lipid peroxidation / Serum parameters ALP / Serum parameters Bilirubin / Serum parameters Triglycerides / Serum parameters GOT / Serum parameters GPT: 50 mg kg-1 p.o. at 48 h, 24h, 2 h before and 6 h after GalN 300 mg kg-1 s.c., mean ± S.E.; for Serum parameters GOT / Serum parameters GPT: unit is µmole pyruvate/min/L; for hepatoprotective activity percent, ALP / hepatoprotective activity percent, Bilirubin / hepatoprotective activity percent, GOT / hepatoprotective activity percent, GPT / hepatoprotective activity percent, Glutathione / hepatoprotective activity percent, Lipid peroxidation / hepatoprotective activity percent, Triglycerides: GalN, 50 mg kg-1 p.o., H = [1-(TC-V/VC-V)] × 100
Experimental: i. Animals: The pharmacological studies are conducted on Wistar albino rats (150-180g) and Swiss albino mice (25-30g) of either sex, colony - bred in the Institute's animal house. After procurement, all the animals are divided into different groups and are left for one week for acclimatization to experimentation room and are maintained on standard conditions (23±2°C, 60-70 % relative humidity and 12 h photo period). The animals are fed with standard rodents pellet diet and water ad libitum. There are six animals in each group except for general behaviour and acute toxicity studies where ten animals are used in each group.
D-Galactosamine: It is one of the toxins that induce hepatic inflammatory conditions in the rat liver that clinically resembles to viral hepatitis. The mechanism of GalN induced liver injury has been extensively examined and this model is now accepted as one of the authentic systems of liver damage (Bauer et. al., 1974, Al-Tuwaijiri et. al., 1981). (Table1)
Hepatic damage is produced by injecting GalN (300 mg.kg^-1) subcutaneously in normal saline. The control animals received the equal volume of vehicle.
Freshly prepared suspension (1%, w/v) in 0.2% gum acacia in normal saline is used for all the experiments except for toxicity studies where (10 %, w/v) suspension is used. Silymarin suspension (1%, w/v) in 0.2 % gum acacia is used as a reference standard (positive control).
Blood is collected from orbital sinus in all the animals 18 h after last treatment and serum separated for different estimations. All the animals are then killed by decapitation, their livers are quickly excised, cleaned of adhering tissue, weighed and homogenised in phosphate buffer saline for the analysis of hepatic parameters. A portion of the liver is processed for histopathological studies (Table 1)
• GPT and GOT: Pyruvate formed by transamination reaction is determined spectrophotometrically after reaction with 2,4-dinitrophenylhydrazine (Reitman and Frankel, 1957). • ALP : p-nitrophenol formed in alkaline medium is measured spectrophotometrically using p-nitrophenyl phosphate as substrate (Walter and Schutt, 1974). • Bilirubin : Total bilirubin is measured by diazotization reaction with NaNO2 (Malloy and Evelyn, 1937) • Triglycerides : Triglycerides from serum are extracted with isopropanol and sopanified with KOH. The liberated glycerol is converted to formaldehyde by periodate and determined after reaction with acetyl acetone. Triolein is used as standard (Neri and Firings, 1973). • Glutathione: It is determined after deproteination by reaction with DTNB (Ellman 1959 as modified by David 1987). • Lipid peroxidation: Thiobarbituric acid reacting substances are determined spectrophotometrically at 535 nm. Buege. and Aust. (1978).
Hepatoprotective activity (H) is calculated by the following equation: H = [1-(TC-V/VC-V)] × 100 [formula]
Where TC, VC, and V are drug + toxin, vehicle + toxin and vehicle treated groups of animals respectively.

[2] = test system: galactosamine, paracetamol and CCl4 as hepatotoxins; assay: Earlier RRL Jammu study: hepatoprotective effect against galactosamine, paracetamol and CCl4 as hepatotoxins, silymarin as reference; type: in vivo; settings: synthesized constituent; silymarin as reference material

| Structure (SMILES) | Hepatic parameters Glutathione [1] [µ mole GSH/g liver] | Hepatic parameters Lipid peroxidation [1] [n moles MDA/g liver] | Serum parameters ALP [1] | Serum parameters Bilirubin [1] [mg %] | Serum parameters Triglycerides [1] [mg %] | Serum parameters GOT [1] [Units] | Serum parameters GPT [1] [Units] | hepatoprotective activity percent, ALP [1] | hepatoprotective activity percent, Bilirubin [1] | hepatoprotective activity percent, GOT [1] | hepatoprotective activity percent, GPT [1] | hepatoprotective activity percent, Glutathione [1] | hepatoprotective activity percent, Lipid peroxidation [1] | hepatoprotective activity percent, Triglycerides [1] | hepatoprotective effect against galactosamine, paracetamol and CCl4 as hepatotoxins [2] |
| --- | --- | --- | --- | --- | --- | --- | --- | --- | --- | --- | --- | --- | --- | --- | --- |
| COc1cc(C(C)=O)ccc1O [APO, Apocynin] | 4.52±0.49 | 48.71±3.69 | 37.73±1.64 µ mole of p-nitrophenol formed/min/ L | 0.41±0.02 | 31.85±3.74 | 509.33±41.63 | 859.18±50.51 | (68.76) percent | (41.66) percent | (38.42) percent | (46.59) percent | (21.51) percent | (39.93) percent | (42.95) percent |  |
| CCCCCCCC/C=C/CCCCCCCCCCCCCC(=O)O [TCA, trans-tetracos-15-enoic acid] | 5.39±0.43 | 42.12±3.93 | 44.16±2.87 µ mole of p-nitrophenol formed/min/ L | 0.29±0.03 | 29.78±2.82 | 421.64±30.36 | 758.59±40.86 | (59.67) percent | (66.66) percent | (52.03) percent | (53.74) percent | (38.84) percent | (59.35) percent | (50.99) percent | dose related hepatoprotective effect |
